Test results from patent US8450272B2, “Combinations of somatostatin-analogs with different selectivity for human somatostatin receptor subtypes” (priority 2006, dated 2013).
Numbered stars: 1 amine (or outer) side, 2 acyl side, 3 side chain; on linkers, the order of the positions; unused ones are H or OH. Square brackets hold non-standard residues; d marks the D form. Side chains are listed from the residue outwards. Peptide text beside a SMILES is read from it. * marks the point of attachment. ξ: configuration not given here. Ethylenediamine = C(CN[*:2])N[*:1]; Hyp = O=C(O)[C@@H]1C[C@@H](O)CN1; ξPhg = NC(C(=O)O)c1ccccc1; CO = O=C([*:1])[*:2]; Bn = c1ccc(C*)cc1

Key:
[1] = Short term experiment: acute s.c. injection, blood glucose AUC; assay type: in vivo, adult male Lewis rats; settings: 10 μg/kg s.c., rats, within 1 hour after injection
Method: Effect of an acute s.c. injection of octreotide and pasireotide in rats (1 and 10 μg/kg) and different combinations thereof on the accumulated glucose levels between 0 and 1 hour after the injection (n=6 animals per group).
In the short term experiment octreotide and pasireotide and their combination were s.c. injected in rats in 1 ml saline. Blood samples were taken by sublingual bleeding the rats 15 min, 30 min, 1 h, 3 h, 6 h and 8 h after the injection and blood glucose was determined using ACCU-Chek Compact (Roche), which was newly calibrated before each measurement. In order to determine the overall effect of the treatment on glucose the area under the curve (AUC) was determined using GraphPad Prizm. 4.0.

[2] = Long-term s.c. infusion by osmotic minipumps, plasma glucose concentration; assay type: in vivo, adult male Lewis rats; settings: 3 and 10 μg/kg/h alone, rats
Method: Effect of long term application of octreotide and pasireotide alone and in combination on plasma glucose concentration in rats. Compounds were continuously infused by osmotic minipumps at 3 and 10 μg/kg/h for the single compounds and at 1.5, 5 and 10 μg/kg/h for the combinations. Plasma glucose levels were determined one day before and 1, 7 and 14 days after minipumps implantation.
In the long-term experiments octreotide and pasireotide and their combination were s.c. infused in rats using osmotic minipumps (Alzet model: 2002). Blood samples were taken by sublingual bleeding on the day before minipump implantation and after 1, 7 and 14 days.

[3] = Previous experiments: glucose increase after pasireotide injection; assay type: in vivo; settings: rats
Method: Based on previous experiments in rats it was known that acute injection of pasireotide causes an increase in glucose, which was rapid in onset (within 30 min after injection), reached its peak between 1 and 3 h and returned to baseline values after 6-8 h. […] Therefore only moderate increases in glucose have been observed after repeated or long-term treatment with pasireotide mainly on the first day(s) of treatment. […] In order to investigate the efficacy of both compounds and their combination on a relevant parameter in rats plasma GH and IGF-1 levels as well as body weight were determined in rats within 14 days of continuous infusion with the compounds. […] Due to the known pulsatile release pattern of GH and the low sensitivity of the available GH RIA, levels of IGF-1 and body weight (BW) are more reliable parameters to determine efficacy of a compound on the GH/IGF-1 system. GH and IGF-1 are both growth factors which are responsible for growth of animals and humans and lack of these factors result in growth retardation in animals which are still growing (like in rats). […] Unlike the rapid changes in glucose levels, changes in IGF-1 levels are only observed after 1-2 days of treatment with somatostatin analogues.

[4] = in vivo; cited from earlier work

Row | SMILES | change of AUC glucose levels vs. control [1] | plasma glucose ([2]; continuous infusion for 14 days) | plasma level of glucose ([2]; continuous infusion, day 1 and 7 of treatment) | onset of increase in glucose after injection ([3]; acute injection) | return of glucose to baseline values ([3]; acute injection) | glucose response on repeated or long term injections ([3]; repeated or long term injections) | t1/2 [4]
1 | C[C@@H](O)[C@@H]1NC(=O)[C@H](CCCCN)NC(=O)[C@@H](Cc2c[nH]c3ccccc23)NC(=O)[C@H](Cc2ccccc2)NC(=O)[C@@H](NC(=O)[C@H](N)Cc2ccccc2)CSSC[C@@H](C(=O)N[C@H](CO)[C@@H](C)O)NC1=O [octreotide] | no effect | no effect or caused a small but significant reduction |  |  |  |  | 
2 | NCCCC[C@@H]1NC(=O)[C@@H](Cc2c[nH]c3ccccc23)NC(=O)C(c2ccccc2)NC(=O)[C@@H]2C[C@@H](OC(=O)NCCN)CN2C(=O)[C@H](Cc2ccccc2)NC(=O)[C@H](Cc2ccc(OCc3ccccc3)cc2)NC1=O (stereo partly drawn) [pasireotide, cyclo[{4-(NH2—C2H4—NH—CO—O—)Pro}-Phg-DTrp-Lys-Tyr(4-Bzl)-Phe]] (cyclo(F[Hyp]([CO-Ethylenediamine])[ξPhg][dW]KY(Bn))) | 56% |  | slightly, but significantly increased | ≤ 30 min | 6 to 8 h | strong tachyphylaxis | 11 h
